Reference: PubChem BioAssay (NCI)
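Where inhibition never reached the appropriate level, the endpoint shown equals the highest concentration tested. Otherwise, values were interpolated linearly from a five-concentration, 48-hour dose response in 96-well plates. TGI is the concentration that stops growth completely.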

Legend:
Test in all cases: DTP human tumour cell line panel, 48 h
[1] = test system: K-562 leukemia
[2] = test system: A549 NSCLC
[3] = test system: M14 melanoma
[4] = test system: NCI-H522 lung
[5] = test system: OVCAR-5 ovarian
[6] = test system: LOX IMVI melanoma
[7] = test system: SNB-19 CNS
[8] = test system: MOLT-4 leukemia
[9] = test system: MALME-3M melanoma
[10] = test system: UACC-62 melanoma
[11] = test system: OVCAR-3 ovarian
[12] = test system: DMS 273 small cell lung
[13] = test system: SF-268 CNS
[14] = test system: SK-MEL-5 melanoma
[15] = test system: SW-620 colon
[16] = test system: NCI-H460 lung
[17] = test system: OVCAR-8 ovarian
[18] = test system: HOP-18 NSCLC
[19] = test system: U251 CNS
[20] = test system: SK-MEL-28 melanoma
[21] = test system: KM12 colon
[22] = test system: UACC-257 melanoma
[23] = test system: NCI-H226 lung
[24] = test system: CAKI-1 renal
[25] = test system: TK-10 renal
[26] = test system: RXF 393 renal
[27] = test system: KM20L2 colon
[28] = test system: SN12C renal
[29] = test system: HCC-2998 colon
[30] = test system: OVCAR-4 ovarian
[31] = test system: CCRF-CEM leukemia
[32] = test system: SF-295 CNS
[33] = test system: NCI-H23 lung
[34] = test system: UO-31 renal
[35] = test system: HCT-116 colon
[36] = test system: M19-MEL melanoma
[37] = test system: HOP-62 NSCLC
[38] = test system: ACHN renal
[39] = test system: HT29 colon
[40] = test system: DLD-1 colon
[41] = test system: XF 498 CNS
[42] = test system: SK-MEL-2 melanoma
[43] = test system: LXFL 529 NSCLC
[44] = test system: IGROV1 ovarian
[45] = test system: EKVX NSCLC
[46] = test system: 786-0 renal
[47] = test system: SR leukemia
[48] = test system: SK-OV-3 ovarian
[49] = test system: SNB-78 CNS
[50] = test system: HL-60(TB) leukemia
[51] = test system: SNB-75 CNS
[52] = test system: HCT-15 colon
[53] = test system: DMS 114 small cell lung
[54] = test system: COLO 205 colon
[55] = test system: RPMI-8226 leukemia
[56] = test system: SF-539 CNS
[57] = test system: HOP-92 NSCLC
[58] = test system: A498 renal

Cc1ccc(C2C(Cl)C(=O)N2n2cnc3ccccc3c2=O)cc1 (stereo not drawn)
TGI [1]: > 100 µM
TGI [2]: > 100 µM
TGI [3]: > 100 µM
TGI [4]: > 100 µM
TGI [5]: > 100 µM
TGI [6]: > 100 µM
TGI [7]: > 100 µM
TGI [8]: > 100 µM
TGI [9]: > 100 µM
TGI [10]: > 100 µM
TGI [11]: > 100 µM
TGI [12]: > 100 µM
TGI [13]: > 100 µM
TGI [14]: > 100 µM
TGI [15]: > 100 µM
TGI [16]: > 100 µM
TGI [17]: > 100 µM
TGI [18]: > 100 µM
TGI [19]: > 100 µM
TGI [20]: > 100 µM
TGI [21]: > 100 µM
TGI [22]: > 100 µM
TGI [23]: > 100 µM
TGI [24]: > 100 µM
TGI [25]: > 100 µM
TGI [26]: > 100 µM
TGI [27]: > 100 µM
TGI [28]: > 100 µM
TGI [29]: > 100 µM
TGI [30]: > 100 µM
TGI [31]: > 100 µM
TGI [32]: > 100 µM
TGI [33]: > 100 µM
TGI [34]: 90.4 µM
TGI [35]: > 100 µM
TGI [36]: > 100 µM
TGI [37]: > 100 µM
TGI [38]: > 100 µM
TGI [39]: > 100 µM
TGI [40]: > 100 µM
TGI [41]: > 100 µM
TGI [42]: > 100 µM
TGI [43]: > 100 µM
TGI [44]: > 100 µM
TGI [45]: > 100 µM
TGI [46]: > 100 µM
TGI [47]: > 100 µM
TGI [48]: > 100 µM
TGI [49]: > 100 µM
TGI [50]: > 100 µM
TGI [51]: > 100 µM
TGI [52]: > 100 µM
TGI [53]: > 100 µM
TGI [54]: > 100 µM
TGI [55]: > 100 µM

C=C1CC[C@@H]2C(C)(C)C(O)CCC2(C)C1COc1ccc2ccc(=O)oc2c1 (stereo partly drawn)
TGI [56]: 31.3 µM
TGI [1]: 44.1 µM
TGI [2]: 32.6 µM
TGI [3]: 33.2 µM
TGI [4]: 29.8 µM
TGI [6]: 32 µM
TGI [7]: 37.4 µM
TGI [8]: 39.8 µM
TGI [9]: 32.1 µM
TGI [57]: 35.4 µM
TGI [10]: 29.4 µM
TGI [11]: 32.6 µM
TGI [12]: 27.3 µM
TGI [13]: 36.7 µM
TGI [15]: 42.4 µM
TGI [16]: 23.5 µM
TGI [17]: 33.5 µM
TGI [18]: 35 µM
TGI [19]: 34.3 µM
TGI [20]: 32.2 µM
TGI [21]: 29.8 µM
TGI [22]: 32.6 µM
TGI [23]: 33.3 µM
TGI [25]: 36.9 µM
TGI [26]: 35.5 µM
TGI [27]: 40.5 µM
TGI [28]: 30 µM
TGI [29]: 34.8 µM
TGI [30]: 29.7 µM
TGI [31]: 49 µM
TGI [32]: 29.7 µM
TGI [33]: 34.6 µM
TGI [34]: 29.4 µM
TGI [35]: 28.8 µM
TGI [36]: 32.5 µM
TGI [37]: 33.4 µM
TGI [38]: 30.5 µM
TGI [39]: 37.3 µM
TGI [40]: 34.4 µM
TGI [41]: 29.6 µM
TGI [42]: 32 µM
TGI [43]: 23.7 µM
TGI [44]: 33.5 µM
TGI [45]: 37.4 µM
TGI [58]: 56.8 µM
TGI [46]: 42.2 µM
TGI [47]: 56.9 µM
TGI [48]: 55.2 µM
TGI [49]: 39.2 µM
TGI [50]: 36.3 µM
TGI [51]: 32.2 µM
TGI [52]: 28.3 µM
TGI [53]: 28.2 µM
TGI [54]: 28.1 µM
TGI [55]: 33.8 µM

Cc1c(C(=N)N)oc2ccccc12
TGI [56]: > 100 µM
TGI [1]: > 100 µM
TGI [2]: > 100 µM
TGI [3]: > 100 µM
TGI [4]: > 100 µM
TGI [6]: > 100 µM
TGI [7]: > 100 µM
TGI [8]: > 100 µM
TGI [9]: > 100 µM
TGI [57]: > 100 µM
TGI [10]: > 100 µM
TGI [11]: > 100 µM
TGI [13]: > 100 µM
TGI [14]: > 100 µM
TGI [15]: > 100 µM
TGI [16]: > 100 µM
TGI [17]: > 100 µM
TGI [18]: > 100 µM
TGI [19]: > 100 µM
TGI [20]: > 100 µM
TGI [21]: > 100 µM
TGI [22]: > 100 µM
TGI [23]: > 100 µM
TGI [24]: > 100 µM
TGI [25]: > 100 µM
TGI [26]: > 100 µM
TGI [27]: > 100 µM
TGI [28]: > 100 µM
TGI [29]: > 100 µM
TGI [30]: > 100 µM
TGI [31]: > 100 µM
TGI [32]: > 100 µM
TGI [33]: > 100 µM
TGI [34]: > 100 µM
TGI [35]: > 100 µM
TGI [36]: > 100 µM
TGI [37]: > 100 µM
TGI [38]: > 100 µM
TGI [39]: > 100 µM
TGI [40]: > 100 µM
TGI [41]: > 100 µM
TGI [43]: > 100 µM
TGI [44]: > 100 µM
TGI [45]: > 100 µM
TGI [58]: > 100 µM
TGI [46]: > 100 µM
TGI [47]: > 100 µM
TGI [48]: > 100 µM
TGI [49]: > 100 µM
TGI [50]: > 100 µM
TGI [51]: > 100 µM
TGI [53]: > 100 µM
TGI [54]: > 100 µM

COc1nc(NC2OCC(O)C(O)C2O)c(NC2OCC(O)C(O)C2O)c(=O)n1C (stereo not drawn)
TGI [56]: > 100 µM
TGI [1]: > 100 µM
TGI [2]: > 100 µM
TGI [3]: > 100 µM
TGI [4]: > 100 µM
TGI [6]: > 100 µM
TGI [7]: > 100 µM
TGI [8]: > 100 µM
TGI [9]: > 100 µM
TGI [57]: > 100 µM
TGI [10]: > 100 µM
TGI [11]: > 100 µM
TGI [12]: > 100 µM
TGI [13]: > 100 µM
TGI [15]: > 100 µM
TGI [16]: > 100 µM
TGI [17]: > 100 µM
TGI [18]: > 100 µM
TGI [19]: > 100 µM
TGI [20]: > 100 µM
TGI [21]: > 100 µM
TGI [22]: > 100 µM
TGI [23]: > 100 µM
TGI [25]: > 100 µM
TGI [26]: > 100 µM
TGI [27]: > 100 µM
TGI [28]: > 100 µM
TGI [29]: > 100 µM
TGI [30]: > 100 µM
TGI [31]: > 100 µM
TGI [32]: > 100 µM
TGI [33]: > 100 µM
TGI [34]: > 100 µM
TGI [35]: > 100 µM
TGI [36]: > 100 µM
TGI [37]: > 100 µM
TGI [38]: > 100 µM
TGI [39]: > 100 µM
TGI [40]: > 100 µM
TGI [41]: > 100 µM
TGI [42]: > 100 µM
TGI [43]: > 100 µM
TGI [44]: > 100 µM
TGI [45]: > 100 µM
TGI [58]: > 100 µM
TGI [46]: > 100 µM
TGI [47]: > 100 µM
TGI [48]: > 100 µM
TGI [49]: > 100 µM
TGI [50]: > 100 µM
TGI [51]: > 100 µM
TGI [52]: > 100 µM
TGI [53]: > 100 µM
TGI [54]: > 100 µM
TGI [55]: > 100 µM

CCN(CC)C(=O)c1c(Cl)cc(N(CC)CC)oc1=O
TGI [56]: > 100 µM
TGI [1]: > 100 µM
TGI [2]: > 100 µM
TGI [3]: > 100 µM
TGI [4]: > 100 µM
TGI [6]: > 100 µM
TGI [7]: > 100 µM
TGI [8]: > 100 µM
TGI [9]: > 100 µM
TGI [57]: > 100 µM
TGI [10]: > 100 µM
TGI [11]: > 100 µM
TGI [12]: > 100 µM
TGI [13]: > 100 µM
TGI [15]: > 100 µM
TGI [16]: > 100 µM
TGI [17]: > 100 µM
TGI [18]: > 100 µM
TGI [19]: > 100 µM
TGI [20]: > 100 µM
TGI [21]: > 100 µM
TGI [22]: > 100 µM
TGI [23]: > 100 µM
TGI [25]: > 100 µM
TGI [26]: > 100 µM
TGI [27]: > 100 µM
TGI [28]: > 100 µM
TGI [29]: > 100 µM
TGI [30]: > 100 µM
TGI [31]: > 100 µM
TGI [32]: > 100 µM
TGI [33]: > 100 µM
TGI [34]: > 100 µM
TGI [35]: > 100 µM
TGI [36]: > 100 µM
TGI [37]: > 100 µM
TGI [38]: > 100 µM
TGI [39]: > 100 µM
TGI [40]: > 100 µM
TGI [41]: > 100 µM
TGI [42]: > 100 µM
TGI [43]: > 100 µM
TGI [44]: > 100 µM
TGI [45]: > 100 µM
TGI [58]: > 100 µM
TGI [46]: > 100 µM
TGI [47]: > 100 µM
TGI [48]: > 100 µM
TGI [49]: > 100 µM
TGI [50]: > 100 µM
TGI [51]: > 100 µM
TGI [52]: > 100 µM
TGI [53]: > 100 µM
TGI [54]: > 100 µM
TGI [55]: > 100 µM
